Experimental data taken from patent US8389544B2, “Isoquinolone compounds as subtype-selective agonists for melatonin receptors MT1 and MT2” (The Hong Kong University of Science and Technology, priority 2007, dated 2013).

Assays:
[1] = biological target: T1, MT2 receptor (Homo sapiens, UniProt P49286); assay: Competitive [3H]melatonin binding assay, MT2; parameters: expressed in transfected cells; conditions: displacement of [3H]melatonin
T1 sequence (P49286 1-362): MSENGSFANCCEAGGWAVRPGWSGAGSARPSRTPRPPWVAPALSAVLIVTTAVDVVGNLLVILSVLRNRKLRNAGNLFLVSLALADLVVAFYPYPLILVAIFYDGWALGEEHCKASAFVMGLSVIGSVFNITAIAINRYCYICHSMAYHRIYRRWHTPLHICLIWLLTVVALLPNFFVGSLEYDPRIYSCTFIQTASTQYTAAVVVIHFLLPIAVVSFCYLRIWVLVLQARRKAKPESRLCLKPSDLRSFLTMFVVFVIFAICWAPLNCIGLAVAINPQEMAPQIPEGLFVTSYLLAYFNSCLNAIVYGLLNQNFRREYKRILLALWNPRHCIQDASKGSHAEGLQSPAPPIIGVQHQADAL
Experimental: (§1) Competitive ligand binding assays were performed to examine the receptor binding characteristics of the novel isoquinolone compounds. The assay measures the ability of the novel isoquinolone compounds to bind and displace the radiolabelled endogenous ligand, [^3H]melatonin. Increasing concentrations of the novel compounds are added to displace the [^3H]melatonin-bound to MT1 or MT2 receptor-expressing cells.
(§2) 4. Competitive Binding Assay
(§3) The ability of compounds to bind to MT1 and/or MT2 receptors is determined using radioligand binding assays. […] 48 hours following transfection, cells are harvested in binding buffer (50 mM Tris-HCl, 2 mM MgCl2, 1 mM EDTA, pH 7.4). 100,000 cells are incubated with 1 nM [^3H] melatonin (specific activity: 83 Ci/mmol; GE Healthcare) and appropriate concentrations (0.1 nM to 1 μM) of unlabelled ligands in a total volume of 100 μl in 96-well plates (PerkinElmer Life And Analytical Sciences, Inc., Boston, Mass.) for 2 hours at room temperature. Reactions are terminated by rapid filtration through a 96-well cell harvester onto 96-well GF/C filter mats. Filters are washed with 500 μl of ice-cold binding buffer, dried and sealed in a polyethylene bag with 3.5 ml of scintillation fluid and counted for tritium in a Microbeta Jet scintillation counter. […] Data are analyzed by nonlinear least-squares regression using GraphPad Prism 3.02.

[2] = biological target: T2, MT1 receptor (Homo sapiens, UniProt P48039); assay: cAMP assay, MT1; format: cell-based; parameters: expressed in transfected cells; host or cells: COS-7 (monkey kidney fibroblast); conditions: inhibition of forskolin-stimulated cAMP production; MT1-expressing cells
T2 sequence (P48039 whole entry): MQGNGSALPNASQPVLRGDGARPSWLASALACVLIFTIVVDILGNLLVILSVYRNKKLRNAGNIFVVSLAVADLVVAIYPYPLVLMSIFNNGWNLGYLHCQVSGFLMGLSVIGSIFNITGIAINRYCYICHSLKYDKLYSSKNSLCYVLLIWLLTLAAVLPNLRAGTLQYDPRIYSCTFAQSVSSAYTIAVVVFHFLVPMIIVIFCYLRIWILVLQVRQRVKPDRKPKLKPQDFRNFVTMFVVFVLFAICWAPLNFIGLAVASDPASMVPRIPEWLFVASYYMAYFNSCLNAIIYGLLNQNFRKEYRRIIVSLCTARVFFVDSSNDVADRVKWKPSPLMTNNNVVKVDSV

[3] = biological target: T1, MT2 receptor; assay: CRE-Luc (luciferase reporter gene) assay, MT2; format: cell-based; parameters: expressed in transfected cells; conditions: HEK 293-pCREluc cells with MT2; inhibition of forskolin response
Experimental: (§4) The luciferase reporter gene assay offers another way to measure melatonin receptor activation. Cells expressing cAMP-responsive element-driven luciferase reporter gene (293-pCREluc) and either the MT1 or MT2 receptor are treated with forskolin (a substance which stimulates cAMP production as well as the subsequent luciferase gene expression) alone or with a novel isoquinolone compound. As melatonin receptor activation inhibits cAMP production, any suppression in the expression of luciferase leads to a decrease in enzymatic activities and a reduction in the amount of luminescence signal generated.
(§5) The luciferase assay, a reporter gene assay, was performed to confirm the ability of the invention to activate the melatonin receptors. Prior to the assay, HEK (human embryonic kidney) 293 cells are stably transfected with cAMP-responsive element-driven luciferase reporter gene (293-pCREluc) and cDNAs encoding MT1 or MT2 receptors. The cells are then exposed to the novel isoquinolone compounds, after which the substrate luciferin is added and the resulting luminescence measured.
(§6) Prior to the assay human embryonic kidney (HEK) 293 cells (CRL-1573, ATCC) is maintained at 37° C. in minimum essential medium (MEM) supplemented with 10% fetal bovine serum (FBS), 100 units/ml penicillin and 100 μg/ml streptomycin in a humidified atmosphere containing 5% CO2. Human embryonic kidney 293 cells stably transfected with cAMP-responsive element-driven luciferase reporter gene (293-pCREluc) are established and maintained in growth medium supplemented with 300 μg/ml G418 sulphate.
(§7) For luciferase assays, HEK-293 cells stably expressing pCRE-luciferase are seeded at a density of 15,000 cells/well into 96 well plates. Transfection is carried out using Lipofectamine Plus® reagent at 0.2 μl of both Plus and lipofectamine reagents with 50 ng cDNAs encoding MT1 or MT2 receptors per well. After a 3 hour transfection period at 37° C., 50 μl of DMEM with 20% fetal calf serum (FCS) is added into the wells and the plate is incubated at 37° C. for 48 h prior to 24 hour serum starvation. […]
(§8) Cells are harvested by replacing medium in the well by 50 μl luciferase lysis buffer. The Berthold microplate luminometer is maintained at 25° C. throughout the assay. Injector M connected to an empty tube and P connected to the drug tube are set to inject 25 μl of luciferin into appropriate wells. A 1.6 second delay time followed by a 1 second measuring time period is assigned to injector M, whereas injector P is measured for 10 seconds after luciferase substrate is introduced into the well. Results are expressed as relative luminescent units (RLU). Where indicated, agonist-induced activity is expressed as a percentage of the RLU obtained with forskolin.

[4] = test system: MT2/293; assay: MTT cytotoxicity assay, MT2/293 cells; format: cell-based; conditions: percentage of untreated control cells
Experimental: (§9) This assay evaluates the cytotoxic effects of the novel isoquinolone compounds based on the cellular viability under chronic treatments. Viable cells but not dead cells can turn the substrate into a colored product, which yields higher absorbance. […] A low percentage indicates low cytoviability (or high cytotoxicity).
(§10) 5. Cytotoxicity Test Using MTT Assay
(§11) Cells were seeded into clear 96-well plate at an appropriate density in 100 μl growth medium and were allowed to grow overnight. The novel isoquinolone compounds were diluted to desired concentrations using fresh growth medium, and these dilutions were used to replace the growth media in each well. After incubating for 24-96 h, 10 μl of the MTT labeling reagent (Roche) was added to each well and the cells were incubated in a CO2 incubator for 4 h. 100 μl solubilization buffer was then added into each well and incubated overnight for complete solubilization of the purple formazan crystals. […] Each condition was performed in triplicate in every experiment and the results were expressed as % of blank control±SD.

[5] = biological target: T2, MT1 receptor; assay: Competitive [3H]melatonin binding assay, MT1; parameters: expressed in transfected cells
Experimental: as §1, §2, §3

[6] = biological target: T2, MT1 receptor; assay: CRE-Luc (luciferase reporter gene) assay, MT1; format: cell-based; parameters: expressed in transfected cells; conditions: HEK 293-pCREluc cells with MT1; inhibition of forskolin response
Experimental: as §4, §5, §6, §7, §8

[7] = test system: Parental 293; assay: MTT cytotoxicity assay, parental 293 cells; format: cell-based; conditions: percentage of untreated control cells
Experimental: as §9, §10, §11

[8] = test system: MT1/293; assay: MTT cytotoxicity assay, MT1/293 cells; format: cell-based; conditions: percentage of untreated control cells
Experimental: as §9, §10, §11

[9] = biological target: T1, MT2 receptor; assay: cAMP assay, MT2; format: cell-based; parameters: expressed in transfected cells; host or cells: COS-7 (monkey kidney fibroblast); conditions: inhibition of forskolin-stimulated cAMP production; MT2-expressing cells

SMILES: COc1ccc2[nH]c(I)c(CCNC(C)=O)c2c1 [Compound 2-IMT, 2-iodomelatonin, reference compound]
- Binding Assay MT2 % Inh [1]: 85.1%
- cAMP Assay MT1 % Inh [2]: 48.5 ± 17.8%
- CRE-Luc Assay MT2 % Inh ± SEM of 1 μM Fsk [3]: 61.9 ± 5.0%
- MTT Assay MT2/293 % Viability ± SEM [4]: 119.5 ± 8.3%
- displacement of bound [3H]melatonin ([5]; b129, MT1 or MT2 receptor-expressing cells, both subtypes): 85-95%
- Binding Assay MT1 % Inh ([5]; displacement of [3H]melatonin): 94.9%
- CRE-Luc Assay MT1 % Inh ± SEM of 1 μM Fsk [6]: 73.0 ± 2.2%
- MTT Assay Parental 293 % Viability ± SEM [7]: 105.9 ± 4.3%
- MTT Assay MT1/293 % Viability ± SEM [8]: 113.3 ± 7.0%
- cAMP Assay MT2 % Inh [9]: 51.9 ± 5.6%
